# Read-outs that look alike come from different tables or passages of the source.
# Experiments:
# [1] = format: physicochemical; conditions: stored at room temperature (21-25° C.)
# Protocol: At each time period, 0.05 g of powder was dissolved in 10 ml-15 of ethanol, diluted to fall within the analytical range, and injected into the LCMSMS for analysis.
# [2] = Stability of cannabinoid and Vitamin E components of Beverage 2 (AB Red) stored at 8° C. and 21-25° C., LCMSMS over 570 days
# Protocol: The LCMSMS was calibrated for 0-50 ng/ml cannabinoids with the same resin material used in the preparation of the concentrates. At each time period, 100 μml of beverage was diluted with 10 ml of methanol and injected into the LCMSMS for analysis.
smiles,measurement,setting,value
"CCCCCc1cc(O)c(C/C=C(\C)CCC=C(C)C)c(O)c1 [CBG, cannabigerol]",Stability in Powder Concentrate (content by LCMSMS),[1]; day 0,1.1 mg/g powder
same,Stability in Powder Concentrate (content by LCMSMS),[1]; day 1,1.07 mg/g powder
same,Stability in Powder Concentrate (content by LCMSMS),[1]; day 2,1.08 mg/g powder
same,Stability in Powder Concentrate (content by LCMSMS),[1]; day 3,1.09 mg/g powder
same,Stability in Powder Concentrate (content by LCMSMS),[1]; day 5,1.11 mg/g powder
same,Stability in Powder Concentrate (content by LCMSMS),[1]; day 8,1.07 mg/g powder
same,Stability in Powder Concentrate (content by LCMSMS),[1]; day 9,1.09 mg/g powder
same,Stability in Powder Concentrate (content by LCMSMS),[1]; day 10,1.08 mg/g powder
same,Stability in Powder Concentrate (content by LCMSMS),[1]; day 11,1.14 mg/g powder
same,Stability in Powder Concentrate (content by LCMSMS),[1]; day 12,1.10 mg/g powder
same,Stability in Powder Concentrate (content by LCMSMS),[1]; day 15,1.08 mg/g powder
same,Stability in Powder Concentrate (content by LCMSMS),[1]; day 16,1.06 mg/g powder
same,Stability in Powder Concentrate (content by LCMSMS),[1]; day 17,1.06 mg/g powder
same,Stability in Powder Concentrate (content by LCMSMS),[1]; day 18,1.13 mg/g powder
same,Stability in Powder Concentrate (content by LCMSMS),[1]; day 19,1.14 mg/g powder
same,Stability in Powder Concentrate (content by LCMSMS),[1]; day 22,1.12 mg/g powder
same,Stability in Powder Concentrate (content by LCMSMS),[1]; day 23,1.13 mg/g powder
same,Stability in Powder Concentrate (content by LCMSMS),[1]; day 24,1.09 mg/g powder
same,Stability in Powder Concentrate (content by LCMSMS),[1]; day 25,1.13 mg/g powder
same,Stability in Powder Concentrate (content by LCMSMS),[1]; day 26,1.14 mg/g powder
same,Stability in Powder Concentrate (content by LCMSMS),[1]; day 29,1.10 mg/g powder
same,Stability in Powder Concentrate (content by LCMSMS),[1]; day 30,1.07 mg/g powder
same,Stability in Powder Concentrate (content by LCMSMS),[1]; day 60,1.1 mg/g powder
same,Stability in Powder Concentrate (content by LCMSMS),[1]; day 90,1.13 mg/g powder
same,Stability in Powder Concentrate (content by LCMSMS),[1]; day 120,1.09 mg/g powder
same,Stability in Powder Concentrate (content by LCMSMS),[1]; day 150,1.11 mg/g powder
same,Stability in Powder Concentrate (content by LCMSMS),[1]; day 180,1.07 mg/g powder
same,Stability in Powder Concentrate (content by LCMSMS),[1]; day 210,1.06 mg/g powder
same,Stability in Powder Concentrate (content by LCMSMS),[1]; day 240,1.12 mg/g powder
same,Stability in Powder Concentrate (content by LCMSMS),[1]; day 270,1.15 mg/g powder
same,Stability in Powder Concentrate (content by LCMSMS),[1]; day 300,1.09 mg/g powder
same,Stability in Powder Concentrate (content by LCMSMS),[1]; day 330,1.10 mg/g powder
same,Stability in Powder Concentrate (content by LCMSMS),[1]; day 360,1.09 mg/g powder
same,Stability in Powder Concentrate (content by LCMSMS),[1]; day 390,1.14 mg/g powder
same,Stability in Powder Concentrate (content by LCMSMS),[1]; day 420,1.11 mg/g powder
same,Stability in Powder Concentrate (content by LCMSMS),[1]; day 450,1.06 mg/g powder
same,Stability in Powder Concentrate (content by LCMSMS),[1]; day 480,1.12 mg/g powder
same,Stability in Powder Concentrate (content by LCMSMS),[1]; day 510,1.07 mg/g powder
same,Stability in Powder Concentrate (content by LCMSMS),[1]; day 540,1.07 mg/g powder
same,Stability in Powder Concentrate (content by LCMSMS),[1]; day 570,1.06 mg/g powder
same,Stability of Cannabinoids in AB Red,"[2]; 8° C., 0 days",4.75 µg/mL
same,Stability of Cannabinoids in AB Red,"[2]; 8° C., 1 days",4.62 µg/mL
same,Stability of Cannabinoids in AB Red,"[2]; 8° C., 2 days",4.79 µg/mL
same,Stability of Cannabinoids in AB Red,"[2]; 8° C., 3 days",4.70 µg/mL
same,Stability of Cannabinoids in AB Red,"[2]; 8° C., 5 days",4.75 µg/mL
same,Stability of Cannabinoids in AB Red,"[2]; 8° C., 8 days",4.76 µg/mL
same,Stability of Cannabinoids in AB Red,"[2]; 8° C., 9 days",4.72 µg/mL
same,Stability of Cannabinoids in AB Red,"[2]; 8° C., 10 days",4.68 µg/mL
same,Stability of Cannabinoids in AB Red,"[2]; 8° C., 11 days",4.77 µg/mL
same,Stability of Cannabinoids in AB Red,"[2]; 8° C., 12 days",4.64 µg/mL
same,Stability of Cannabinoids in AB Red,"[2]; 8° C., 15 days",4.68 µg/mL
same,Stability of Cannabinoids in AB Red,"[2]; 8° C., 16 days",4.65 µg/mL
same,Stability of Cannabinoids in AB Red,"[2]; 8° C., 17 days",4.77 µg/mL
same,Stability of Cannabinoids in AB Red,"[2]; 8° C., 18 days",4.67 µg/mL
same,Stability of Cannabinoids in AB Red,"[2]; 8° C., 19 days",4.71 µg/mL
same,Stability of Cannabinoids in AB Red,"[2]; 8° C., 22 days",4.70 µg/mL
same,Stability of Cannabinoids in AB Red,"[2]; 8° C., 23 days",4.66 µg/mL
same,Stability of Cannabinoids in AB Red,"[2]; 8° C., 24 days",4.65 µg/mL
same,Stability of Cannabinoids in AB Red,"[2]; 8° C., 25 days",4.73 µg/mL
same,Stability of Cannabinoids in AB Red,"[2]; 8° C., 26 days",4.68 µg/mL
same,Stability of Cannabinoids in AB Red,"[2]; 8° C., 29 days",4.80 µg/mL
same,Stability of Cannabinoids in AB Red,"[2]; 8° C., 30 days",4.72 µg/mL
same,Stability of Cannabinoids in AB Red,"[2]; 8° C., 60 days",4.70 µg/mL
same,Stability of Cannabinoids in AB Red,"[2]; 8° C., 90 days",4.73 µg/mL
same,Stability of Cannabinoids in AB Red,"[2]; 8° C., 120 days",4.68 µg/mL
same,Stability of Cannabinoids in AB Red,"[2]; 8° C., 150 days",4.67 µg/mL
same,Stability of Cannabinoids in AB Red,"[2]; 8° C., 180 days",4.65 µg/mL
same,Stability of Cannabinoids in AB Red,"[2]; 8° C., 210 days",4.60 µg/mL
same,Stability of Cannabinoids in AB Red,"[2]; 8° C., 240 days",4.68 µg/mL
same,Stability of Cannabinoids in AB Red,"[2]; 8° C., 270 days",4.66 µg/mL
same,Stability of Cannabinoids in AB Red,"[2]; 8° C., 300 days",4.70 µg/mL
same,Stability of Cannabinoids in AB Red,"[2]; 8° C., 330 days",4.60 µg/mL
same,Stability of Cannabinoids in AB Red,"[2]; 8° C., 390 days",4.55 µg/mL
same,Stability of Cannabinoids in AB Red,"[2]; 8° C., 420 days",4.58 µg/mL
same,Stability of Cannabinoids in AB Red,"[2]; 8° C., 450 days",4.54 µg/mL
same,Stability of Cannabinoids in AB Red,"[2]; 8° C., 480 days",4.51 µg/mL
same,Stability of Cannabinoids in AB Red,"[2]; 8° C., 510 days",4.40 µg/mL
same,Stability of Cannabinoids in AB Red,"[2]; 8° C., 540 days",4.42 µg/mL
same,Stability of Cannabinoids in AB Red,"[2]; 8° C., 570 days",4.37 µg/mL
same,Stability of Cannabinoids in AB Red,"[2]; 21-25° C., 0 days",4.75 µg/mL
same,Stability of Cannabinoids in AB Red,"[2]; 21-25° C., 1 days",4.57 µg/mL
same,Stability of Cannabinoids in AB Red,"[2]; 21-25° C., 2 days",4.61 µg/mL
same,Stability of Cannabinoids in AB Red,"[2]; 21-25° C., 3 days",4.71 µg/mL
same,Stability of Cannabinoids in AB Red,"[2]; 21-25° C., 5 days",4.66 µg/mL
same,Stability of Cannabinoids in AB Red,"[2]; 21-25° C., 8 days",4.66 µg/mL
same,Stability of Cannabinoids in AB Red,"[2]; 21-25° C., 9 days",4.74 µg/mL
same,Stability of Cannabinoids in AB Red,"[2]; 21-25° C., 10 days",4.59 µg/mL
same,Stability of Cannabinoids in AB Red,"[2]; 21-25° C., 11 days",4.72 µg/mL
same,Stability of Cannabinoids in AB Red,"[2]; 21-25° C., 12 days",4.62 µg/mL
same,Stability of Cannabinoids in AB Red,"[2]; 21-25° C., 15 days",4.80 µg/mL
same,Stability of Cannabinoids in AB Red,"[2]; 21-25° C., 16 days",4.75 µg/mL
same,Stability of Cannabinoids in AB Red,"[2]; 21-25° C., 17 days",4.63 µg/mL
same,Stability of Cannabinoids in AB Red,"[2]; 21-25° C., 18 days",4.70 µg/mL
same,Stability of Cannabinoids in AB Red,"[2]; 21-25° C., 19 days",4.66 µg/mL
same,Stability of Cannabinoids in AB Red,"[2]; 21-25° C., 22 days",4.71 µg/mL
same,Stability of Cannabinoids in AB Red,"[2]; 21-25° C., 23 days",4.67 µg/mL
same,Stability of Cannabinoids in AB Red,"[2]; 21-25° C., 24 days",4.78 µg/mL
same,Stability of Cannabinoids in AB Red,"[2]; 21-25° C., 25 days",4.56 µg/mL
same,Stability of Cannabinoids in AB Red,"[2]; 21-25° C., 26 days",4.77 µg/mL
same,Stability of Cannabinoids in AB Red,"[2]; 21-25° C., 29 days",4.78 µg/mL
same,Stability of Cannabinoids in AB Red,"[2]; 21-25° C., 30 days",4.73 µg/mL
same,Stability of Cannabinoids in AB Red,"[2]; 21-25° C., 60 days",4.61 µg/mL
same,Stability of Cannabinoids in AB Red,"[2]; 21-25° C., 90 days",4.55 µg/mL
same,Stability of Cannabinoids in AB Red,"[2]; 21-25° C., 120 days",4.61 µg/mL
same,Stability of Cannabinoids in AB Red,"[2]; 21-25° C., 150 days",4.65 µg/mL
same,Stability of Cannabinoids in AB Red,"[2]; 21-25° C., 180 days",4.53 µg/mL
same,Stability of Cannabinoids in AB Red,"[2]; 21-25° C., 210 days",4.63 µg/mL
same,Stability of Cannabinoids in AB Red,"[2]; 21-25° C., 240 days",4.56 µg/mL
same,Stability of Cannabinoids in AB Red,"[2]; 21-25° C., 270 days",4.68 µg/mL
same,Stability of Cannabinoids in AB Red,"[2]; 21-25° C., 300 days",4.47 µg/mL
same,Stability of Cannabinoids in AB Red,"[2]; 21-25° C., 330 days",4.57 µg/mL
same,Stability of Cannabinoids in AB Red,"[2]; 21-25° C., 390 days",4.57 µg/mL
same,Stability of Cannabinoids in AB Red,"[2]; 21-25° C., 420 days",4.51 µg/mL
same,Stability of Cannabinoids in AB Red,"[2]; 21-25° C., 450 days",4.63 µg/mL
same,Stability of Cannabinoids in AB Red,"[2]; 21-25° C., 480 days",4.44 µg/mL
same,Stability of Cannabinoids in AB Red,"[2]; 21-25° C., 510 days",4.37 µg/mL
same,Stability of Cannabinoids in AB Red,"[2]; 21-25° C., 540 days",4.49 µg/mL
same,Stability of Cannabinoids in AB Red,"[2]; 21-25° C., 570 days",4.36 µg/mL
